Values after ≈ are worked out from the molar mass of the structure shown.
What was measured:
[1] = Selectivity index, ratio of IC50 for cytotoxicity against Chinese hamster CHO-K1 cells to MIC for antimycobacterial activity against Mycobacterium tuberculosis H37Rv; assay type: toxicity, cell-based; details: read-out: Selectivity Index
[2] = Cytotoxicity against Chinese hamster CHO-K1 cells assessed as inhibition of cell growth; assay type: toxicity, cell-based, Cricetulus griseus
[3] = test system: Mycobacterium tuberculosis; assay: Antimycobacterial activity against Mycobacterium tuberculosis H37Rv; assay type: functional
[4] = test system: Mycobacterium tuberculosis; assay: Antitubercular activity against Mycobacterium tuberculosis H37Rv by resazurin microtitre assay; assay type: functional
[5] = Cytotoxicity against HEK293T cells assessed as reduction in cell viability; assay type: toxicity, cell-based, HEK-293T; details: human
[6] = Selectivity index, ratio of GI50 for cytotoxicity against human HeLa cells to MIC for antitubercular activity against active stage of Mycobacterium tuberculosis H37Ra; assay type: toxicity, cell-based; details: read-out: Selectivity Index
[7] = test system: Mycobacterium tuberculosis; assay: Antitubercular activity against active stage of Mycobacterium tuberculosis H37Ra; assay type: functional
[8] = Selectivity index, ratio of GI50 for cytotoxicity against HUVEC cells to MIC for antitubercular activity against active stage of Mycobacterium tuberculosis H37Ra; assay type: toxicity, cell-based; details: human, read-out: Selectivity Index
[9] = Selectivity index, ratio of GI50 for cytotoxicity against human MCF7 cells to MIC for antitubercular activity against dormant stage of Mycobacterium tuberculosis H37Ra; assay type: toxicity, cell-based; details: read-out: Selectivity Index
[10] = Selectivity index, ratio of GI50 for cytotoxicity against human HeLa cells to MIC for antitubercular activity against dormant stage of Mycobacterium tuberculosis H37Ra; assay type: toxicity, cell-based; details: read-out: Selectivity Index
[11] = Selectivity index, ratio of GI50 for cytotoxicity against human MCF7 cells to MIC for antitubercular activity against active stage of Mycobacterium tuberculosis H37Ra; assay type: toxicity, cell-based; details: read-out: Selectivity Index
[12] = Selectivity index, ratio of GI50 for cytotoxicity against HUVEC cells to MIC for antitubercular activity against dormant stage of Mycobacterium tuberculosis H37Ra; assay type: toxicity, cell-based; details: human, read-out: Selectivity Index
[13] = Cytotoxicity against HUVEC cells assessed as cell growth inhibition; assay type: toxicity, cell-based; details: human
HeLa = assay: Cytotoxicity against human HeLa cells assessed as cell growth inhibition; assay type: functional
MCF7 = assay: Cytotoxicity against human MCF7 cells assessed as cell growth inhibition; assay type: functional
[14] = test system: Mycobacterium tuberculosis; assay: Antitubercular activity against dormant stage of Mycobacterium tuberculosis H37Ra; assay type: functional
[15] = test system: Mycobacterium tuberculosis; assay: Antimycobacterial activity against Mycobacterium tuberculosis H37Rv ATCC 27294 by broth dilution method; assay type: functional
J774 = assay: Cytotoxicity against mouse J774 cells incubated for 24 hrs by MTT assay; assay type: toxicity, cell-based; details: j774, 24 h
[16] = test system: Mycobacterium tuberculosis; assay: Antimycobacterial activity against non replicating Mycobacterium tuberculosis by broth dilution method; assay type: functional
[17] = test system: Mycobacterium tuberculosis; assay: Antimycobacterial activity against Mycobacterium tuberculosis H37Rv assessed as inhibition of bacterial growth incubated for 5 days by alamar blue assay; assay type: functional; details: 120 h, time 5 day
[18] = test system: Mycobacterium tuberculosis; assay: Antitubercular activity against Mycobacterium tuberculosis H37Rv assessed as inhibition of bacterial growth by alamar blue assay; assay type: functional

SMILES	selectivity ratio [6]	MIC [7] [mg/L]	selectivity ratio [8]	selectivity ratio [9]	selectivity ratio [10]	selectivity ratio [11]	selectivity ratio [12]	GI50 [13] [mg/L]	GI50 (HeLa) [mg/L]	GI50 (MCF7) [mg/L]	MIC [14] [mg/L]	other results
S=c1[nH]nc(-c2ccccc2)o1	–	–	–	–	–	–	–	–	–	–	–	selectivity ratio [1]: 15.1; IC50 [2]: 33.3 mg/L (≈ 187 µM); MIC [3]: 2.2 mg/L (≈ 12.3 µM)
CCN(CC)CCOc1c(C(=O)OC)c2c3c(oc2c2ccccc12)C(=O)c1ccccc1C3=O	–	–	–	–	–	–	–	–	–	–	–	MIC50 [4]: 0.19 mg/L (≈ 0.403 µM)
Oc1ccc(-c2nnc(S)o2)cc1	–	–	–	–	–	–	–	–	–	–	–	selectivity ratio [1]: 39.6; MIC [3]: 0.6 mg/L (≈ 3.09 µM)
Cc1nc(C)c(-c2nnc(S)o2)s1	–	–	–	–	–	–	–	–	–	–	–	IC50 [2]: 21.7 mg/L (≈ 102 µM); MIC [3]: 1.3 mg/L (≈ 6.1 µM)
CC(=O)N1/C(=C/c2ccc(NC(C)C)cc2)C(=O)c2ccccc21	–	–	–	–	–	–	–	–	–	–	–	CC50 [5]: 19 µM; MIC90 [3]: > 20 µM; MIC99 [3]: > 20 µM
CC(=O)N1/C(=C/c2cccc(-c3cnc4ccccc4c3)c2)C(=O)c2ccccc21	–	–	–	–	–	–	–	–	–	–	–	CC50 [5]: 14 µM; MIC90 [3]: 2.65 µM (≈ 1.03 µg/mL); MIC99 [3]: 3.13 µM (≈ 1.22 µg/mL)
O=C(OCc1ccccc1)c1ccsc1NC(=O)[C@@H]1CCCN1	> 11.8	21.1 (≈ 63.9 µM)	> 11.8	> 66.5	> 66.5	> 11.8	> 66.5	> 250	> 250	> 250	3.76 (≈ 11.4 µM)	–
C[C@]1(Cn2cc(CN3CCOCC3)nn2)Cn2cc([N+](=O)[O-])nc2O1	–	–	–	–	–	–	–	–	–	–	–	MIC [15]: 2 mg/L (≈ 5.72 µM); Activity (J774): > 40 µg/mL; MIC [16]: 1 mg/L (≈ 2.86 µM)
Cc1ccc(SCc2cn(C[C@@]3(C)Cn4cc([N+](=O)[O-])nc4O3)nn2)cc1	–	–	–	–	–	–	–	–	–	–	–	MIC [15]: 2 mg/L (≈ 5.18 µM); Activity (J774): > 40 µg/mL; MIC [16]: 1 mg/L (≈ 2.59 µM)
O=C(OCC(F)(F)F)c1ccsc1NC(=O)[C@@H]1CCCN1	13.3	8.23 (≈ 25.5 µM)	> 30.4	83	101	10.9	> 231	> 250	109 (≈ 339 µM)	89.7 (≈ 278 µM)	1.08 (≈ 3.35 µM)	–
CCOC(=O)c1ccsc1NC(=O)[C@@H]1CCCN1	3.88	9.08 (≈ 33.8 µM)	> 27.5	> 32.8	4.63	> 27.5	> 32.8	> 250	35.3 (≈ 132 µM)	> 250	7.62 (≈ 28.4 µM)	–
C=CCOC(=O)c1ccsc1NC(=O)[C@@H]1CCCN1	4.08	23.2 (≈ 82.8 µM)	6.41	47.6	46.7	4.16	73.3	149 (≈ 531 µM)	94.9 (≈ 338 µM)	96.6 (≈ 345 µM)	2.03 (≈ 7.24 µM)	–
CC(=O)N1/C(=C/c2cccc(-c3ccc(Cl)cc3)c2)C(=O)c2ccccc21	–	–	–	–	–	–	–	–	–	–	–	CC50 [5]: 4 µM; MIC90 [3]: 6.44 µM (≈ 2.41 µg/mL); MIC99 [3]: 7.85 µM (≈ 2.93 µg/mL)
O=C(Oc1ccccc1)c1ccsc1NC(=O)[C@@H]1CCCN1	> 10.1	24.7 (≈ 78.2 µM)	> 10.1	> 10.6	> 10.6	> 10.1	> 10.6	> 250	> 250	> 250	23.7 (≈ 74.8 µM)	–
Sc1nnc(-c2cc3ccccc3[nH]2)o1	–	–	–	–	–	–	–	–	–	–	–	selectivity ratio [1]: 16.6; IC50 [2]: 21.6 mg/L (≈ 99.4 µM); MIC [3]: 1.3 mg/L (≈ 5.98 µM)
Sc1nnc(-c2ccc(I)cc2)o1	–	–	–	–	–	–	–	–	–	–	–	selectivity ratio [1]: 51.8; IC50 [2]: 46.7 mg/L (≈ 154 µM); MIC [3]: 0.9 mg/L (≈ 2.96 µM)
COC(=O)c1sccc1NC(=O)[C@@H]1CCCN1	5.7	15.9 (≈ 62.4 µM)	5.75	24.2	13.4	10.3	13.6	91.3 (≈ 359 µM)	90.4 (≈ 355 µM)	163 (≈ 641 µM)	6.74 (≈ 26.5 µM)	–
O=C(OCC(Cl)(Cl)Cl)c1ccsc1NC(=O)[C@@H]1CCCN1	> 12.3	20.4 (≈ 54.9 µM)	> 12.3	> 15.5	> 15.5	> 12.3	> 15.5	> 250	> 250	> 250	16.1 (≈ 43.3 µM)	–
O=C1CC[C@@H](COC(=O)c2ccsc2NC(=O)[C@@H]2CCCN2)N1	20.2	9.46 (≈ 28 µM)	9.36	22.1	28.6	15.6	13.3	88.6 (≈ 263 µM)	191 (≈ 566 µM)	148 (≈ 437 µM)	6.67 (≈ 19.8 µM)	–
CC(=O)N1/C(=C/c2ccc(-c3ccc(OC(F)(F)F)cc3)cc2)C(=O)c2ccccc21	–	–	–	–	–	–	–	–	–	–	–	CC50 [5]: 8 µM; MIC90 [3]: 1.44 µM (≈ 0.61 µg/mL); MIC99 [3]: 3.19 µM (≈ 1.35 µg/mL)
CC(=O)N1/C(=C/c2ccccc2)C(=O)c2cc(-c3ccccc3)ccc21	–	–	–	–	–	–	–	–	–	–	–	CC50 [5]: 12 µM; MIC90 [3]: 1.24 µM (≈ 0.421 µg/mL); MIC99 [3]: 1.39 µM (≈ 0.472 µg/mL)
COC(=O)c1ccsc1NC(=O)[C@H]1CCCN1	8.43	10.8 (≈ 42.6 µM)	8.84	20.4	10.4	16.5	10.9	95.8 (≈ 377 µM)	91.4 (≈ 359 µM)	179 (≈ 704 µM)	8.78 (≈ 34.5 µM)	–
Sc1nnc(-c2cc(Br)co2)o1	–	–	–	–	–	–	–	–	–	–	–	selectivity ratio [1]: 25.6; IC50 [2]: 35.5 mg/L (≈ 144 µM); MIC [3]: 1.5 mg/L (≈ 6.07 µM)
CC(=O)N1/C(=C/c2ccc(-c3ccc(F)cc3)cc2)C(=O)c2ccccc21	–	–	–	–	–	–	–	–	–	–	–	CC50 [5]: 9 µM; MIC90 [3]: 1.26 µM (≈ 0.45 µg/mL); MIC99 [3]: 1.98 µM (≈ 0.708 µg/mL)
O=C(OC1CCCCC1)c1ccsc1NC(=O)[C@@H]1CCCN1	3.76	24.6 (≈ 76.4 µM)	5.57	33	18.9	6.59	27.9	137 (≈ 426 µM)	92.8 (≈ 288 µM)	162 (≈ 504 µM)	4.92 (≈ 15.3 µM)	–
COC(=O)c1ccsc1NC(=O)[C@@H]1CCCN1	> 20.9	12 (≈ 47.1 µM)	> 20.9	> 74.6	> 74.6	> 20.9	> 74.6	> 250	> 250	> 250	3.35 (≈ 13.2 µM)	–
Sc1nnc(-c2cc3ccccc3o2)o1	–	–	–	–	–	–	–	–	–	–	–	selectivity ratio [1]: 26.4; IC50 [2]: 34.4 mg/L (≈ 158 µM); MIC [3]: 1.3 mg/L (≈ 5.96 µM)
CC[C@@H](CO)NCCN[C@@H](CC)CO [ETHAMBUTOL]	–	–	–	–	–	–	–	–	–	–	–	MIC [4]: 0.78 mg/L (≈ 3.82 µM)
CC(=O)O[C@H]1C(=O)[C@@]2(C)[C@H]([C@H](OC(=O)c3ccccc3)[C@]3(O)C[C@H](OC(=O)[C@H](O)[C@@H](NC(=O)c4ccccc4)c4ccccc4)C(C)=C1C3(C)C)[C@]1(OC(C)=O)CO[C@@H]1C[C@@H]2O [PACLITAXEL]	–	–	–	–	–	–	–	> 10	0.0048 (≈ 0.00562 µM)	0.0021 (≈ 0.00246 µM)	–	–
NC(=O)c1cnccn1 [PYRAZINAMIDE]	–	–	–	–	–	–	–	–	–	–	–	MIC [4]: > 200 mg/L; MIC [17]: 3.12 mg/L (≈ 25.3 µM); MIC [3]: 3.12 mg/L (≈ 25.3 µM); MIC [18]: 3.12 mg/L (≈ 25.4 µM)
